Measurements from PubChem BioAssay AID256 (DTP/NCI, 2004).
Inconclusive results and toxic doses are left out.

Test system: CD2F1 mice, L1210 leukemia ip, survival T/C
Test: NCI In Vivo Anticancer Drug Screen. Data for tumor model L1210 Leukemia (intraperitoneal) in CD2F1 (CDF1) mice
Conditions: endpoint: mean survival time, higher = longer survival
Outline: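 Ratio T/C, where T is the treated-group value and C the vehicle-dosed control value, from mice implanted with a transplantable tumor.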

[1] = dose: 12.5 mg/kg/injection, schedule: Q01DX009 (ip), vehicle: saline with Tween-80
[2] = dose: 25.0 mg/kg/injection, schedule: Q01DX009 (ip), vehicle: saline with Tween-80
[3] = dose: 100.0 mg/kg/injection, schedule: Q01DX009 (ip), vehicle: saline with Tween-80
[4] = dose: 200.0 mg/kg/injection, schedule: Q01DX009 (ip), vehicle: saline with Tween-80
[5] = dose: 400.0 mg/kg/injection, schedule: Q01DX009 (ip), vehicle: saline with Tween-80
[6] = dose: 50.0 mg/kg/injection, schedule: Q01DX009 (ip), vehicle: saline with Tween-80
[7] = dose: 100.0 mg/kg/injection, schedule: Q04DX003 (ip), vehicle: saline with Tween-80
[8] = dose: 200.0 mg/kg/injection, schedule: Q04DX003 (ip), vehicle: saline with Tween-80
[9] = dose: 400.0 mg/kg/injection, schedule: Q04DX003 (ip), vehicle: saline with Tween-80

OCC(O)C(O)C(O)C(O)C(O)CO (configuration not stated)
T/C (dose: 50.0 mg/kg/injection, schedule: Q01DX009 (ip), vehicle: Klucel (hydroxypropylcellulose) (HPC)): 98 % of control | T/C (dose: 100.0 mg/kg/injection, schedule: Q01DX009 (ip), vehicle: Klucel (hydroxypropylcellulose) (HPC)): 102 % of control | T/C (dose: 100.0 mg/kg/injection, schedule: Q01DX009 (ip), vehicle: saline): 98 % of control | T/C (dose: 100.0 mg/kg/injection, schedule: Q04DX002 (ip), vehicle: saline): 100 % of control | T/C (dose: 200.0 mg/kg/injection, schedule: Q01DX009 (ip), vehicle: Klucel (hydroxypropylcellulose) (HPC)): 98 % of control | T/C (dose: 200.0 mg/kg/injection, schedule: Q01DX009 (ip), vehicle: saline): 91 % of control | T/C (dose: 200.0 mg/kg/injection, schedule: Q04DX002 (ip), vehicle: saline): 107 % of control | T/C (dose: 400.0 mg/kg/injection, schedule: Q01DX009 (ip), vehicle: saline): 102 % of control | T/C (dose: 400.0 mg/kg/injection, schedule: Q04DX002 (ip), vehicle: saline): 96 % of control

Cc1cc(CBr)c(O)c(CBr)c1
T/C (dose: 25.0 mg/kg/injection, schedule: Q01DX009 (ip), vehicle: other): 101 % of control | T/C (dose: 50.0 mg/kg/injection, schedule: Q01DX009 (ip), vehicle: other): 93 % of control | T/C (dose: 100.0 mg/kg/injection, schedule: Q01DX009 (ip), vehicle: other): 104 % of control

CC(C)c1ccc2c(c1)CCC1C(C)(CN)CCCC21C (configuration not stated) (tested in a mixture with another compound)
T/C (dose: 6.25 mg/kg/injection, schedule: Q01DX001 (ip), vehicle: saline with Tween-80): 91 % of control | T/C (dose: 6.25 mg/kg/injection, schedule: Q01DX009 (ip), vehicle: saline with Tween-80): 101 % of control | T/C (dose: 12.5 mg/kg/injection, schedule: Q01DX001 (ip), vehicle: saline with Tween-80): 96 % of control | T/C [1]: 101 % of control | T/C (dose: 25.0 mg/kg/injection, schedule: Q01DX001 (ip), vehicle: saline with Tween-80): 87 % of control | T/C [2]: 101 % of control

CCCCCCCCCCCCOCCC(=O)O
T/C (dose: 75.0 mg/kg/injection, schedule: Q04DX003 (ip), vehicle: saline): 97 % of control | T/C (dose: 150.0 mg/kg/injection, schedule: Q04DX003 (ip), vehicle: saline): 103 % of control | T/C (dose: 300.0 mg/kg/injection, schedule: Q04DX003 (ip), vehicle: saline): 95 % of control

COC1OC2COC(c3ccccc3)OC2C(O)C1O (configuration not stated)
T/C (dose: 100.0 mg/kg/injection, schedule: Q04DX003 (ip), vehicle: Klucel (hydroxypropylcellulose) (HPC)): 105 % of control | T/C (dose: 200.0 mg/kg/injection, schedule: Q04DX003 (ip), vehicle: Klucel (hydroxypropylcellulose) (HPC)): 95 % of control | T/C (dose: 400.0 mg/kg/injection, schedule: Q04DX003 (ip), vehicle: Klucel (hydroxypropylcellulose) (HPC)): 95 % of control

Cc1ccc(S(N)(=O)=O)cc1
T/C [3]: 94 % of control | T/C [4]: 97 % of control | T/C [5]: 102 % of control

c1cnc2c(c1)ccc1ncccc12
T/C [1]: 91 % of control | T/C [2]: 109 % of control | T/C [6]: 96 % of control

Cc1ccc(CC(=O)O)cc1C
T/C [7]: 98 % of control | T/C [8]: 95 % of control | T/C [9]: 98 % of control

O=C1C2C3CCC(C3)C2N1Cc1ccccc1 (configuration not stated)
T/C (dose: 100.0 mg/kg/injection, schedule: Q04DX002 (ip), vehicle: other): 93 % of control | T/C (dose: 200.0 mg/kg/injection, schedule: Q04DX002 (ip), vehicle: other): 96 % of control | T/C (dose: 400.0 mg/kg/injection, schedule: Q04DX002 (ip), vehicle: other): 96 % of control

CC(=O)Nc1c(Br)cc2c(c1Br)Cc1cc(N(CCO)CCO)ccc1-2
T/C (dose: 50.0 mg/kg/injection, schedule: Q01DX001 (ip), vehicle: carboxymethylcellulose (CMC)): 102 % of control | T/C (dose: 100.0 mg/kg/injection, schedule: Q01DX001 (ip), vehicle: carboxymethylcellulose (CMC)): 102 % of control | T/C (dose: 200.0 mg/kg/injection, schedule: Q01DX001 (ip), vehicle: carboxymethylcellulose (CMC)): 104 % of control | T/C (dose: 400.0 mg/kg/injection, schedule: Q01DX001 (ip), vehicle: carboxymethylcellulose (CMC)): 98 % of control

C[S+](C)c1ccccc1
T/C (dose: 12.5 mg/kg/injection, schedule: Q04DX002 (ip), vehicle: saline): 100 % of control | T/C (dose: 25.0 mg/kg/injection, schedule: Q04DX002 (ip), vehicle: saline): 96 % of control | T/C (dose: 50.0 mg/kg/injection, schedule: Q04DX002 (ip), vehicle: saline): 100 % of control

CSCCC(NC(=O)c1ccccc1)C(=O)O (configuration not stated)
T/C [3]: 91 % of control | T/C [4]: 87 % of control | T/C [5]: 90 % of control

CC(C)(C)/C=C\C=C\C(C)(C)C
T/C [6]: 100 % of control | T/C [3]: 103 % of control | T/C [4]: 92 % of control

Cc1ccc(NC(=O)N(CCCl)N=O)cc1C
T/C (dose: 1.6 mg/kg/injection, schedule: Q01DX001 (ip), vehicle: other): 115 % of control | T/C (dose: 5.7 mg/kg/injection, schedule: Q01DX001 (ip), vehicle: other): 188 % of control | T/C (dose: 8.6 mg/kg/injection, schedule: Q01DX001 (ip), vehicle: other): 190 % of control | T/C (dose: 13.0 mg/kg/injection, schedule: Q01DX001 (ip), vehicle: other): 204 % of control | T/C (dose: 20.0 mg/kg/injection, schedule: Q01DX001 (ip), vehicle: other): 309 % of control | T/C (dose: 29.0 mg/kg/injection, schedule: Q01DX001 (ip), vehicle: other): 191 % of control

C[N+](C)(C)/N=C/c1ccc(Cl)cc1
T/C (dose: 50.0 mg/kg/injection, schedule: Q04DX002 (ip), vehicle: saline with Tween-80): 93 % of control

c1ccc([P+](c2ccccc2)(c2ccccc2)C2OCCO2)cc1
T/C (dose: 100.0 mg/kg/injection, schedule: Q01DX001 (ip), vehicle: saline with Tween-80): 112 % of control

c1ccc2c(c1)oc1ccccc12
T/C [7]: 98 % of control | T/C [8]: 92 % of control | T/C [9]: 92 % of control

CC(=O)Nc1nc(Br)c2ccccc2c1-c1ccc(N(CCOS(=O)(=O)c2ccc(C)cc2)CCOS(=O)(=O)c2ccc(C)cc2)cc1
T/C (dose: 12.5 mg/kg/injection, schedule: Q04DX003 (ip), vehicle: DMSO): 98 % of control | T/C (dose: 25.0 mg/kg/injection, schedule: Q04DX003 (ip), vehicle: DMSO): 102 % of control | T/C (dose: 50.0 mg/kg/injection, schedule: Q04DX003 (ip), vehicle: DMSO): 102 % of control | T/C (dose: 100.0 mg/kg/injection, schedule: Q04DX003 (ip), vehicle: DMSO): 105 % of control

NC(=S)N/N=C/c1nccc2ccccc12
T/C (dose: 6.25 mg/kg/injection, schedule: Q01DX010 (oral), vehicle: saline): 97 % of control | T/C (dose: 15.0 mg/kg/injection, schedule: Q01DX006 (iv), vehicle: saline): 100 % of control | T/C (dose: 25.0 mg/kg/injection, schedule: Q01DX009 (sc), vehicle: saline): 97 % of control | T/C (dose: 30.0 mg/kg/injection, schedule: Q01DX006 (iv), vehicle: saline): 100 % of control | T/C (dose: 50.0 mg/kg/injection, schedule: Q01DX001 (sc), vehicle: saline): 98 % of control | T/C (dose: 50.0 mg/kg/injection, schedule: Q01DX009 (sc), vehicle: saline): 103 % of control | T/C (dose: 75.0 mg/kg/injection, schedule: Q01DX009 (ip), vehicle: saline with Tween-80): 110 % of control | T/C (dose: 168.0 mg/kg/injection, schedule: Q01DX Z (ip), vehicle: saline): 86 % of control | T/C (dose: 200.0 mg/kg/injection, schedule: Q01DX001 (sc), vehicle: saline): 100 % of control | T/C (dose: 360.0 mg/kg/injection, schedule: Q01DX001 (ip), vehicle: saline): 110 % of control

[CH3][Sn]1([CH3])[O]C2C(CO)OC(n3ccc4c(N)ncnc43)C2[O]1 (configuration not stated)
T/C (dose: 0.78 mg/kg/injection, schedule: Q01DX005 (ip), vehicle: other): 111 % of control | T/C (dose: 1.56 mg/kg/injection, schedule: Q01DX005 (ip), vehicle: other): 107 % of control | T/C (dose: 3.13 mg/kg/injection, schedule: Q01DX005 (ip), vehicle: other): 115 % of control
